In patent US9187472B2 (AbbVie Inc., priority 2012, dated 2015):

The compounds below were run on PC3 cells (assay: NAMPT Cell Proliferation Assay). Details: Homo sapiens, PC-3, 120 h, 5 days incubation, cell viability by Cell Titer Glo.
Assay type: cell-based
In short: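 PC3 cells were plated at 500 cells/well in RPMI with 10% heat-inactivated FBS, left to attach overnight, then given compounds in 10-fold dilutions from 10 μM to 1×10^−5 μM. After 5 days at 37° C and 5% CO2, viability was read by luminescence and IC50s came from sigmoidal fits of percent inhibition.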

Row | IC50 [nM] | Compound
1 | 195 | O=C(Cc1ccn2ccnc2c1)Nc1ccc(C2CCN(C(=O)c3ccccc3)CC2)cc1F [Example 1081, N-[4-(1-benzoylpiperidin-4-yl)-2-fluorophenyl]-2-(imidazo[1,2-a]pyridin-7-yl)acetamide]
2 | 26 | O=C(NCc1ccn2ccnc2c1)Nc1ccc(C2CCN(C(=O)c3nc4ccccc4s3)CC2)cc1 [Example 1054, 1-{4-[1-(1,3-benzothiazol-2-ylcarbonyl)piperidin-4-yl]phenyl}-3-(imidazo[1,2-a]pyridin-7-ylmethyl)urea]
3 | 6.24 | CC(C)CCC(=O)N1CCC(c2ccc(NC(=O)NCc3ccn4ccnc4c3)c(F)c2)CC1 [Example 1072, 1-{2-fluoro-4-[1-(4-methylpentanoyl)piperidin-4-yl]phenyl}-3-(imidazo[1,2-a]pyridin-7-ylmethyl)urea]
4 | 100 | N#CC1(C(=O)N2CCC(c3ccc(C(=O)NCc4ccn5ccnc5c4)cc3)CC2)CCCC1 [Example 982, 4-{1-[(1-cyanocyclopentyl)carbonyl]piperidin-4-yl}-N-(imidazo[1,2-a]pyridin-7-ylmethyl)benzamide]
5 | 6.73 | CC1=C(C(=O)N2CCC(c3ccc(C(=O)NCc4ccn5ccnc5c4)cc3)CC2)CCC1 [Example 916, N-(imidazo[1,2-a]pyridin-7-ylmethyl)-4-{1-[(2-methylcyclopent-1-en-1-yl)carbonyl]piperidin-4-yl}benzamide]
6 | 8.88 | O=C(NCc1ccn2ccnc2c1)Nc1ccc(C2CCN(C(=O)c3ccc4cccnc4c3)CC2)cc1 [Example 1032, 1-(imidazo[1,2-a]pyridin-7-ylmethyl)-3-{4-[1-(quinolin-7-ylcarbonyl)piperidin-4-yl]phenyl}urea]
7 | 63.9 | Cc1cc(C(=O)N2CCC(c3ccc(NC(=O)NCc4ccn5ccnc5c4)cc3)CC2)cc(Cl)n1 [Example 951, 1-(4-{1-[(2-chloro-6-methylpyridin-4-yl)carbonyl]piperidin-4-yl}phenyl)-3-(imidazo[1,2-a]pyridin-7-ylmethyl)urea]
8 | 8.94 | Cn1nc2c(c1C(=O)N1CCC(c3ccc(C(=O)NCc4ccn5ccnc5c4)cc3)CC1)CCCC2 [Example 961, N-(imidazo[1,2-a]pyridin-7-ylmethyl)-4-{1-[(2-methyl-4,5,6,7-tetrahydro-2H-indazol-3-yl)carbonyl]piperidin-4-yl}benzamide]
9 | 0.861 | CC(C)C(=O)N1CCC(c2ccc(NC(=O)Cc3ccc4nccn4c3)cc2)CC1 [Example 865, 2-(imidazo[1,2-a]pyridin-6-yl)-N-{4-[1-(2-methylpropanoyl)piperidin-4-yl]phenyl}acetamide]
10 | > 10000 | O=C(NCc1ccc2ncnn2c1)c1ccc(S(=O)(=O)c2ccccc2)cc1 [Example 882, 4-(phenylsulfonyl)-N-([1,2,4]triazolo[1,5-a]pyridin-6-ylmethyl)benzamide]
11 | 4.96 | C=CCn1nc(C)cc1C(=O)N1CCC(c2ccc(C(=O)NCc3ccn4ccnc4c3)cc2)CC1 [Example 1003, N-(imidazo[1,2-a]pyridin-7-ylmethyl)-4-(1-{[3-methyl-1-(prop-2-en-1-yl)-1H-pyrazol-5-yl]carbonyl}piperidin-4-yl)benzamide]
12 | 1 | N#Cc1cc(F)c(C(=O)N2CCC(c3ccc(NC(=O)NCc4ccn5ccnc5c4)cc3)CC2)c(F)c1 [Example 1133, 1-{4-[1-(4-cyano-2,6-difluorobenzoyl)piperidin-4-yl]phenyl}-3-(imidazo[1,2-a]pyridin-7-ylmethyl)urea]
13 | 29.4 | Cc1nc2ccc(C(=O)N3CCC(c4ccc(C(=O)NCc5ccn6ccnc6c5)cc4)CC3)cc2o1 [Example 980, N-(imidazo[1,2-a]pyridin-7-ylmethyl)-4-{1-[(2-methyl-1,3-benzoxazol-6-yl)carbonyl]piperidin-4-yl}benzamide]
14 | 10.3 | COc1cccc(CC(=O)N2CCC(c3ccc(NC(=O)NCc4ccn5ccnc5c4)cc3)CC2)c1 [Example 952, 1-(imidazo[1,2-a]pyridin-7-ylmethyl)-3-(4-{1-[(3-methoxyphenyl)acetyl]piperidin-4-yl}phenyl)urea]
15 | 2.02 | O=C(NCc1ccn2ccnc2c1)c1ccc(C2CCN(C(=O)c3cccc4c3OCCO4)CC2)cc1 [Example 978, 4-[1-(2,3-dihydro-1,4-benzodioxin-5-ylcarbonyl)piperidin-4-yl]-N-(imidazo[1,2-a]pyridin-7-ylmethyl)benzamide]
16 | 9.21 | Cc1cc(C(=O)N2CCC(c3ccc(C(=O)NCc4ccn5ccnc5c4)cc3)CC2)nn1C(F)F [Example 1109, 4-(1-{[1-(difluoromethyl)-5-methyl-1H-pyrazol-3-yl]carbonyl}piperidin-4-yl)-N-(imidazo[1,2-a]pyridin-7-ylmethyl)benzamide]
17 | 6.13 | O=C(NCc1cn2ccnc2cn1)c1ccc(C2CCN(C(=O)C3CCOCC3)CC2)s1 [Example 841, N-(imidazo[1,2-a]pyrazin-6-ylmethyl)-5-[1-(tetrahydro-2H-pyran-4-ylcarbonyl)piperidin-4-yl]thiophene-2-carboxamide]
18 | 8490 | O=C(NCc1ccn2ccnc2c1)c1ccc(S(=O)(=O)c2ccccc2)cc1 [Example 881, N-(imidazo[1,2-a]pyridin-7-ylmethyl)-4-(phenylsulfonyl)benzamide]
19 | 0.857 | CC(C)(C)C(=O)N1CCC(c2ccc(NC(=O)NCc3ccn4ccnc4c3)c(F)c2)CC1 [Example 1070, 1-{4-[1-(2,2-dimethylpropanoyl)piperidin-4-yl]-2-fluorophenyl}-3-(imidazo[1,2-a]pyridin-7-ylmethyl)urea]
20 | 7.84 | O=C(NCc1ccn2ccnc2c1)c1ccc(C2CCN(C(=O)c3cc(Cl)ncc3F)CC2)cc1 [Example 1061, 4-{1-[(2-chloro-5-fluoropyridin-4-yl)carbonyl]piperidin-4-yl}-N-(imidazo[1,2-a]pyridin-7-ylmethyl)benzamide]
21 | 71.4 | CC(C)C(=O)N1CCC(c2ccc(C(=O)NCc3ccc4ncnn4c3)s2)CC1 [Example 842, 5-[1-(2-methylpropanoyl)piperidin-4-yl]-N-([1,2,4]triazolo[1,5-a]pyridin-6-ylmethyl)thiophene-2-carboxamide]
22 | 2.07 | Cn1nc2c(c1C(=O)N1CCC(c3ccc(NC(=O)NCc4ccn5ccnc5c4)cc3)CC1)CCCC2 [Example 1014, 1-(imidazo[1,2-a]pyridin-7-ylmethyl)-3-(4-{1-[(2-methyl-4,5,6,7-tetrahydro-2H-indazol-3-yl)carbonyl]piperidin-4-yl}phenyl)urea]
23 | 174 | COc1ccc(C(=O)N2CCC(c3ccc(C(=O)NCc4ccn5ccnc5c4)cc3)CC2)cc1F [Example 915, 4-[1-(3-fluoro-4-methoxybenzoyl)piperidin-4-yl]-N-(imidazo[1,2-a]pyridin-7-ylmethyl)benzamide]
24 | 10.4 | CCOc1cc(C(=O)N2CCC(c3ccc(NC(=O)NCc4ccn5ccnc5c4)cc3)CC2)ccn1 [Example 1043, 1-(4-{1-[(2-ethoxypyridin-4-yl)carbonyl]piperidin-4-yl}phenyl)-3-(imidazo[1,2-a]pyridin-7-ylmethyl)urea]
25 | 2.29 | O=C(NCc1ccn2ccnc2c1)Nc1ccc(C2CCN(C(=O)c3cccc4ncsc34)CC2)cc1 [Example 1060, 1-{4-[1-(1,3-benzothiazol-7-ylcarbonyl)piperidin-4-yl]phenyl}-3-(imidazo[1,2-a]pyridin-7-ylmethyl)urea]
